According to the NIST ThermoML archive (doi:10.1021/je060068f):
± gives the expanded uncertainty stated by the source.

Settings: Liquid; pulse-heating method

| SMILES | Critical pressure [kPa] | Critical temperature [K] |
| --- | --- | --- |
| CCCCC(CC)COC(=O)c1ccccc1C(=O)OCC(CC)CCCC (centres undefined) [bis(2-ethylhexyl) 1,2-benzenedicarboxylate] | 1070 ± 40 | 835 ± 9 |
| CCCCCCCCCCOC(=O)c1ccccc1C(=O)OCCCCCCCCCC [didecyl phthalate] | 940 ± 30 | 870 ± 10 |
| CCCCCCCCOC(=O)c1ccccc1C(=O)OCCCCCCCC [dioctyl 1,2-benzenedicarboxylate] | 1080 ± 40 | 840 ± 9 |
| CCCOC(=O)c1ccccc1C(=O)OCCC [1,2-benzenedicarboxylic acid dipropyl ester] | 1900 ± 70 | 784 ± 9 |
| CCCCCCCCCCCOC(=O)c1ccccc1C(=O)OCCCCCCCCCCC [diundecyl phthalate] | 890 ± 30 | 886 ± 10 |
| CCCCOC(=O)c1ccccc1C(=O)OCCCC [dibutyl phthalate] | 1660 ± 60 | 797 ± 9 |
| CCCCCCCOC(=O)c1ccccc1C(=O)OCCCCCCC [diheptyl phthalate] | 1240 ± 40 | 830 ± 9 |
| CCCCCCCCCOC(=O)c1ccccc1C(=O)OCCCCCCCCC [dinonyl phthalate] | 1020 ± 40 | 858 ± 9 |
| COC(=O)c1ccccc1C(=O)OC [dimethyl 1,2-benzenedicarboxylate] | 2770 ± 100 | 772 ± 9 |
| CCCCCOC(=O)c1ccccc1C(=O)OCCCCC | 1430 ± 50 | 811 ± 9 |
| CCOC(=O)c1ccccc1C(=O)OCC [diethyl phthalate] | 2260 ± 80 | 776 ± 9 |
| CCCCCCOC(=O)c1ccccc1C(=O)OCCCCCC [dihexyl phthalate] | 1340 ± 50 | 817 ± 9 |
